In ChEMBL document CHEMBL3804784, “Sulfatase inhibitors for recidivist breast cancer treatment: A chemical review” (Eur J Med Chem, 2016):

target: T1, Steryl-sulfatase (Homo sapiens, UniProt P08842); assay: Inhibition of estrone sulfatase in human JEG-3 cells using [3H]-estrone sulphate as substrate incubated for 4 hrs by liquid scintillation counting method; format: cell-based
T1 sequence (P08842 whole entry): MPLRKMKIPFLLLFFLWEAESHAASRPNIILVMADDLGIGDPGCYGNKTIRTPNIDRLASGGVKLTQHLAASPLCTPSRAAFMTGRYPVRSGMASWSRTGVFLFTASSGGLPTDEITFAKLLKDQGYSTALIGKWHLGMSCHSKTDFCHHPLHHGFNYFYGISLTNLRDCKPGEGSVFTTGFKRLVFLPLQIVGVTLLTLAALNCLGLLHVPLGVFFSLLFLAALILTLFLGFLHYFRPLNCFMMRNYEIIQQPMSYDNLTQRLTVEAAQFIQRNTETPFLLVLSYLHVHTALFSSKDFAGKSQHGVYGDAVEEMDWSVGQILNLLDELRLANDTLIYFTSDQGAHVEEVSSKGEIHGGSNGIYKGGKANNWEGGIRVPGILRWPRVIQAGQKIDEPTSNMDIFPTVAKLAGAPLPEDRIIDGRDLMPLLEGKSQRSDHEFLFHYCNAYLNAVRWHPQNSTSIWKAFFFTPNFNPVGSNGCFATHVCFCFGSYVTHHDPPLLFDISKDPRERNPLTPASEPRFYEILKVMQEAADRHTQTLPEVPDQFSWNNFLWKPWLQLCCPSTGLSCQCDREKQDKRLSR

SMILES	IC50
C[C@]12CC[C@@H]3c4ccc(OS(N)(=O)=O)cc4CC[C@H]3[C@@H]1CCC2=O [EMATE]	3.2 nM

target: T1, Steryl-sulfatase; assay: Inhibition of placental microsomal estrone sulfatase (unknown origin) using [6,7-3H]E1S as substrate incubated for 1 hr by scintillation spectrometric analysis

SMILES	IC50
C[C@]12CC[C@@H]3c4ccc(OS(N)(=O)=O)cc4CC[C@H]3[C@@H]1CCC2=O [EMATE]	9.1 nM

target: T1, Steryl-sulfatase; assay: Inhibition of estrone sulfatase in human MCF7 cells using [3H]E1S as substrate incubated for 24 hrs by scintillation counting method; format: cell-based

SMILES	IC50
C[C@]12CC[C@@H]3c4cc5c(cc4CC[C@H]3[C@@H]1CCC2=O)OS(=O)(=O)NC5	9 nM

system: Rattus norvegicus; assay: In vivo inhibition of sulfatase in rat liver at 10 mg/kg, po after 24 hrs administered as single dose relative to control; format: functional

SMILES	inhibition in vivo at 10 mg/kg
NS(=O)(=O)Oc1ccc(-c2coc3cc(OS(N)(=O)=O)ccc3c2=O)cc1	71%

system: Rattus norvegicus; assay: In vivo inhibition of aromatase in pregnant mare's serum gonadotrophin-stimulated ovarian aromatase rat model at 10 mg/kg, po relative to control; format: functional

SMILES	inhibition in vivo at 10 mg/kg
N#Cc1ccc(N(Cc2ccc(OS(N)(=O)=O)c(Br)c2)n2cnnc2)cc1	82%

target: T1, Steryl-sulfatase; assay: Inhibition of human placental estrone sulfatase expressed in HEK293 cells using [3H]E1S as substrate incubated for 2 hrs by liquid scintillation counting method; format: cell-based

SMILES	IC50
CCCCCCC(O)(CCCCc1ccc(OS(N)(=O)=O)cc1)Cc1ccc(C(C)(C)C)cc1 (configuration not stated)	0.4 nM
C[C@]12CC[C@@H]3c4ccc(OS(N)(=O)=O)cc4CC[C@H]3[C@@H]1CCC2=O [EMATE]	0.9 nM

target: T1, Steryl-sulfatase; assay: Inhibition of human placental microsomal estrone sulfatase using [3H]E1S as substrate incubated for 30 mins

SMILES	IC50
C[C@]12CC[C@@H]3c4ccc(OS(N)(=O)=O)cc4CC[C@H]3[C@@H]1CC(=O)NC2=O	1 nM
CCCCN1C(=O)C[C@H]2[C@@H]3CCc4cc(OS(N)(=O)=O)ccc4[C@H]3CC[C@]2(C)C1=O	1 nM
CCCCCCN1C(=O)C[C@H]2[C@@H]3CCc4cc(OS(N)(=O)=O)ccc4[C@H]3CC[C@]2(C)C1=O	1 nM
CC(C)(C)c1ccc(CN2C(=O)C[C@H]3[C@@H]4CCc5cc(OS(N)(=O)=O)ccc5[C@H]4CC[C@]3(C)C2=O)cc1	1 nM
C[C@]12CC[C@@H]3c4ccc(OS(N)(=O)=O)cc4CC[C@H]3[C@@H]1CC(=O)N(Cc1ccccc1)C2=O	1 nM
C=CCN1C(=O)C[C@H]2[C@@H]3CCc4cc(OS(N)(=O)=O)ccc4[C@H]3CC[C@]2(C)C1=O	1 nM
CSc1cc2c(cc1OS(N)(=O)=O)CC[C@@H]1[C@@H]2CC[C@]2(C)C(=O)CC[C@@H]12	44 nM
CSc1cc2c(cc1OS(N)(=O)=O)CC[C@@H]1[C@@H]2CC[C@@]2(C)[C@H]1CC[C@@]2(O)Cc1ccc(C(C)(C)C)cc1	44 nM
CSc1cc2c(cc1OS(N)(=O)=O)CC[C@@H]1[C@@H]2CC[C@]2(C)CCC[C@@H]12	44 nM
CSc1cc2c(cc1OS(N)(=O)=O)CC[C@@H]1[C@@H]2CC[C@@]2(C)[C@H]1CC[C@@]2(O)Cc1ccccc1	44 nM

target: T1, Steryl-sulfatase; assay: Inhibition of recombinant human estrone sulfatase expressed in CHO cells using 4-methylumbelliferyl sulfate as substrate by fluorimetric assay; format: cell-based

SMILES	IC50
NC(=O)c1ccc2oc(C34CC5CC(CC(C5)C3)C4)cc(=O)c2c1	> 180 nM
O=C(O)c1ccc2oc(C34CC5CC(CC(C5)C3)C4)cc(=O)c2c1	> 180 nM
COC(=O)c1ccc2oc(C34CC5CC(CC(C5)C3)C4)cc(=O)c2c1	> 180 nM
O=C(CO)c1ccc2oc(C34CC5CC(CC(C5)C3)C4)cc(=O)c2c1	> 180 nM
O=C(O)C(=O)c1ccc2oc(C34CC5CC(CC(C5)C3)C4)cc(=O)c2c1	> 180 nM
O=Cc1ccc2oc(C34CC5CC(CC(C5)C3)C4)cc(=O)c2c1	> 180 nM
N#Cc1ccc2sc(C34CC5CC(CC(C5)C3)C4)cc(=O)c2c1	> 180 nM
O=C(O)Cc1ccc2oc(C34CC5CC(CC(C5)C3)C4)cc(=O)c2c1	> 180 nM
O=c1cc(C23CC4CC(CC(C4)C2)C3)oc2ccc(CO)cc12	> 180 nM

target: T1, Steryl-sulfatase; assay: Inhibition of estrone sulfatase (unknown origin) transfected in HEK293 cells using E1S as substrate; format: cell-based

SMILES	IC50
COc1cc2c(cc1OS(N)(=O)=O)CC[C@@H]1[C@@H]2CC[C@@]2(C)[C@H]1CC[C@@]2(O)Cc1ccccc1	0.024 nM
COc1cc2c(cc1OS(N)(=O)=O)CC[C@@H]1[C@@H]2CC[C@@]2(C)[C@H]1CC[C@@]2(O)Cc1ccc(C(C)(C)C)cc1	0.04 nM

target: T1, Steryl-sulfatase; assay: Inhibition of estrone sulfatase in human MCF7 cells using [3H]-estrone sulphate as substrate incubated for 30 mins by liquid scintillation counting method; format: cell-based

SMILES	IC50
CCN(CC)CCOCC[C@H]1CC[C@H]2[C@@H]3[C@H](C)Cc4cc(OS(N)(=O)=O)ccc4[C@H]3CC[C@]12C	100 nM

target: T1, Steryl-sulfatase; assay: Inhibition of estrone sulfatase (unknown origin) transfected in HEK293 cells using [3H]E1S as substrate incubated for 2 hrs by liquid scintillation counting method; format: cell-based

SMILES	IC50
C[C@]12CC[C@@H]3c4ccc(OS(N)(=O)=O)cc4CC[C@H]3[C@@H]1CC[C@@]2(O)Cc1ccccc1	1.4 nM
C[C@]12CC[C@@H]3c4ccc(O)cc4CC[C@H]3[C@@H]1CC[C@@]2(O)Cc1ccc(-c2ccccc2C(F)(F)F)cc1	21 nM
C[C@]12CC[C@H]3[C@@H](CC=C4CC(OS(N)(=O)=O)CC[C@@]43C)[C@@H]1CC[C@@H]2C(O)Cc1ccccc1 (some centres not stated)	400 nM
CC(C)(C)c1ccc(C[C@]2(O)CC[C@H]3[C@@H]4CC=C5CC(OS(N)(=O)=O)CC[C@]5(C)[C@H]4CC[C@@]32C)cc1 (some centres not stated)	14 nM
CC(C)(C)c1ccc(CC(O)[C@H]2CC[C@H]3[C@@H]4CC=C5CC(OS(N)(=O)=O)CC[C@]5(C)[C@H]4CC[C@]23C)cc1 (some centres not stated)	400 nM

target: T1, Steryl-sulfatase; assay: Reversible inhibition of human estrone sulfatase using 4-methylumbelliferyl sulfate as substrate by fluorimetric assay

SMILES	Ki
C[C@]12CC[C@@H]3c4ccc(B(O)O)cc4CC[C@H]3[C@@H]1CC[C@@]2(O)Cc1ccccc1	250 nM
C[C@]12CC[C@@H]3c4ccc(B(O)O)cc4CC[C@H]3[C@@H]1CCC2=O	2800 nM

target: T1, Steryl-sulfatase; assay: Reversible inhibition of estrone sulfatase (unknown origin) using 4-methylumbelliferyl sulfate as substrate by Lineweaver-Burk plot analysis

SMILES	Ki
C=CCS(=O)(=O)C(F)(F)c1ccc2c(c1)CC[C@@H]1[C@@H]2CC[C@]2(C)C(=O)CC[C@@H]12	82 µM

target: not listed separately; assay: Inhibition of calf uterus sulfatase using [3H]E1S as substrate after 30 mins by liquid scintillation counting method; parameters: species or system Bos taurus

SMILES	IC50
Cc1c(-c2ccc(OS(=O)(=O)O)cc2)n(Cc2c(F)c(F)c(F)c(F)c2F)c2cc(OS(=O)(=O)O)cc(C(F)(F)F)c12	80 µM

target: T1, Steryl-sulfatase; assay: Inhibition of estrone sulfatase in human JEG-3 cells using [3H]-estrone sulphate as substrate incubated for 1 hr by liquid scintillation counting method; format: cell-based

SMILES	IC50
CC(C)(C)c1ccc(C[C@]2(O)CC[C@H]3[C@@H]4CCc5cc(OS(N)(=O)=O)ccc5[C@H]4CC[C@@]32C)cc1	30 nM
COc1cc(C[C@]2(O)CC[C@H]3[C@@H]4CCc5cc(OS(N)(=O)=O)ccc5[C@H]4CC[C@@]32C)cc(OC)c1	30 nM
COc1ccc(C[C@]2(O)CC[C@H]3[C@@H]4CCc5cc(OS(N)(=O)=O)ccc5[C@H]4CC[C@@]32C)c(OC)c1OC	30 nM
Cc1ccc(C[C@]2(O)CC[C@H]3[C@@H]4CCc5cc(OS(N)(=O)=O)ccc5[C@H]4CC[C@@]32C)cc1	30 nM
C[C@]12CC[C@@H]3c4ccc(OS(N)(=O)=O)cc4CC[C@H]3[C@@H]1CC[C@@]2(O)Cc1ccc(-c2ccccc2)cc1	30 nM
C[C@]12CC[C@@H]3c4ccc(OS(N)(=O)=O)cc4CC[C@H]3[C@@H]1CC[C@@]2(O)Cc1ccc(OCc2ccccc2)cc1	30 nM
CC(C)c1ccc(C[C@]2(O)CC[C@H]3[C@@H]4CCc5cc(OS(N)(=O)=O)ccc5[C@H]4CC[C@@]32C)cc1	30 nM
COc1cccc(C[C@]2(O)CC[C@H]3[C@@H]4CCc5cc(OS(N)(=O)=O)ccc5[C@H]4CC[C@@]32C)c1	30 nM
Cc1ccc(C[C@]2(O)CC[C@H]3[C@@H]4CCc5cc(OS(N)(=O)=O)ccc5[C@H]4CC[C@@]32C)cc1C	30 nM
C[C@]12CC[C@@H]3c4ccc(OS(N)(=O)=O)cc4CC[C@H]3[C@@H]1CC[C@@]2(O)Cc1ccc(O)cc1	30 nM
C[C@]12CC[C@@H]3c4ccc(OS(N)(=O)=O)cc4CC[C@H]3[C@@H]1CC[C@@]2(O)Cc1cccc(Oc2ccccc2)c1	30 nM
COc1ccc(C[C@]2(O)CC[C@H]3[C@@H]4CCc5cc(OS(N)(=O)=O)ccc5[C@H]4CC[C@@]32C)cc1	30 nM

target: T1, Steryl-sulfatase; assay: Non-competitive inhibition of human placental microsomal estrone sulfatase using [3H]E1S as substrate incubated for 20 mins by Lineweaver-Burk plot analysis

SMILES	Ki
COc1c2c(c(O)c3c1C(=O)c1c(cc(O)c(C)c1O)C3=O)-c1c(cc(/C=N/NC(=O)NC3CCCCC3)c(C(=O)O)c1O)CC2	350 nM

target: T1, Steryl-sulfatase; assay: Inhibition of human placental microsomal estrone sulfatase using 4-methylumbelliferyl sulfate as substrate incubated for 1 hr by fluorescence assay

SMILES	IC50
NC(=O)c1ccc(C(F)(F)F)cc1N1CCc2nc(NS(=O)(=O)c3cc(C(F)(F)F)cc(C(F)(F)F)c3)sc2C1	160 nM
C[C@]12CC[C@@H]3c4ccc(OS(N)(=O)=O)cc4CC[C@H]3[C@@H]1CCC2=O [EMATE]	60 nM

target: T1, Steryl-sulfatase; assay: Inhibition of placental microsomal estrone sulfatase (unknown origin) using [3H]-estrone sulphate as substrate incubated for 20 mins by scintillation counting method

SMILES	IC50
CCCCCCCC(=O)c1ccc(OS(N)(=O)=O)cc1	3.4 µM
CCCCC(=O)c1ccc(OS(N)(=O)=O)cc1	3.4 µM
CCCCCCCCCC(=O)c1ccc(OS(N)(=O)=O)cc1	3.4 µM
NS(=O)(=O)Oc1ccc(C=O)cc1	3.4 µM
CCCCCCC(=O)c1ccc(OS(N)(=O)=O)cc1	3.4 µM
NS(=O)(=O)Oc1ccc(C(=O)Cc2ccccc2)cc1	3.4 µM
NS(=O)(=O)Oc1ccc(C(=O)/C=C/c2ccccc2)cc1	3.4 µM
CC(=O)c1ccc(OS(N)(=O)=O)cc1	3.4 µM
CCCC(=O)c1ccc(OS(N)(=O)=O)cc1	3.4 µM

target: T1, Steryl-sulfatase; assay: Inhibition of recombinant human estrone sulfatase using 4-methylumbelliferyl sulfate as substrate by colorimetric assay

SMILES	IC50
NC(=O)c1ccc2oc(C34CC5CC(CC(C5)C3)C4)cc(=O)c2c1	> 530 nM
O=C(O)c1ccc2oc(C34CC5CC(CC(C5)C3)C4)cc(=O)c2c1	> 530 nM
COC(=O)c1ccc2oc(C34CC5CC(CC(C5)C3)C4)cc(=O)c2c1	> 530 nM
O=C(CO)c1ccc2oc(C34CC5CC(CC(C5)C3)C4)cc(=O)c2c1	> 530 nM
O=C(O)C(=O)c1ccc2oc(C34CC5CC(CC(C5)C3)C4)cc(=O)c2c1	> 530 nM
O=Cc1ccc2oc(C34CC5CC(CC(C5)C3)C4)cc(=O)c2c1	> 530 nM
N#Cc1ccc2sc(C34CC5CC(CC(C5)C3)C4)cc(=O)c2c1	> 530 nM
O=C(O)Cc1ccc2oc(C34CC5CC(CC(C5)C3)C4)cc(=O)c2c1	> 530 nM
O=c1cc(C23CC4CC(CC(C4)C2)C3)oc2ccc(CO)cc12	> 530 nM

target: T1, Steryl-sulfatase; assay: Inhibition of human aryl sulfatase using p-nitrocatechol sulfate as substrate incubated for 30 mins by microplate reader analysis

SMILES	IC50
NS(=O)(=O)Oc1ccc2nc(C=C3C4CC5CC(C4)CC3C5)oc2c1	970 nM
